Laboratory results reported in patent US20130344065A1, “Combination Treatment with VEGF-C Antagonists” (Vegenics Pty Ltd, priority 2010, published 2013).

What was measured:
VEGF-C = molecular target: T1, VEGF-C (Homo sapiens, UniProt P49767); assay: Direct binding ELISA / BiaCore affinity of VGX-100; conditions: capture antigens VEGF-C, VEGF-D or VEGF
T1 construct: purchased R&D Systems
T1 sequence (P49767 112-227): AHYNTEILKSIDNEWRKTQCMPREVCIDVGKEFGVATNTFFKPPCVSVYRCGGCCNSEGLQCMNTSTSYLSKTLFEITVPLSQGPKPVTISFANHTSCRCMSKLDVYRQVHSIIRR
Protocol: VEGF-C antibody VGX-100 was assessed by a direct binding ELISA using VEGF-C, VEGF-D or VEGF (R&D Systems) as capture antigens and bound VGX-100 detected with rabbit anti-human IgG-HRP (Abcam).

[1] = test system: KP4 human pancreatic tumors; assay: KP4 pancreatic xenograft (Example 8); conditions: for % T/C: after 30 days
Protocol: VGX-100 was administered at 20 or 40 mg/kg for single therapy and at 40/mg/kg for combination therapy.
To initiate the study, 5×10^6 of KP4 cells suspended in 100 μl of a mixture of medium/Matrigel (1:1) were subcutaneously implanted to the nude mice in the right flank region. Cancer cells were implanted into 90 mice. Animals were monitored for tumor growth daily after cell implantation. When tumor volumes reached 80-100 mm^3, mice were randomized into 5 groups of 10 mice each using only mice having tumor volumes closest to the mean value. Mice with tumor volumes too big or too small were excluded from the study. Tumor volumes were measured using the formula V=L×W×H×π/6, where L and W represented the longer and shorter diameters of the tumor and H represented the height of the tumor. The treatment with drugs was initiated on the day after randomization. […] All treatments were administered intraperitoneally twice weekly for 30 days.
Throughout the entire study, tumor volumes were measured twice weekly and body weights once weekly. […] Unscheduled sacrifices were performed if tumor volumes reached>2,000 mm^3, animals lost>25% of their original body weights, tumor ulceration appeared, or mice became moribund. At the end of the experiment, tumors were removed, embedded in Optimal Cutting Temperature (OCT), and stored at −80° C. for IHC analysis. Gross examination was conducted on liver, lung, spleen, kidneys, testes, and prostate. If no abnormal observation was detected on these organs, the tissues were discarded.
Tumor size was measured 2-3 times weekly with calipers. Size of tumors relative to controls is calculated after 30 days of treatment.

[2] = VGX-100 40 mg/kg and/or Avastin 10 mg/kg

VGX-100: VEGF-C antibody; heavy chain SEQ ID NO: 3, light chain SEQ ID NO: 4
Binding selectivity in direct binding ELISA (VEGF-C): selectively recognized and bound to VEGF-C | Mean Tumor Vol. at D30 (mm3) ([1]; VGX-100 20 mg/kg): 1492.77 mm3 | Mean Tumor Vol. at D30 (mm3) [1, 2]: 693.24 mm3 | Mean Tumor Vol. at D30 (mm3) ([1]; VGX-100 60 mg/kg): 958.93 mm3 | % T/C ([1]; VGX-100 20 mg/kg): 76.0% | % T/C [1, 2]: 35.3% | % T/C ([1]; VGX-100 60 mg/kg): 48.8%
